Measurements from ChEMBL document CHEMBL3870360, “GluN2A-Selective Pyridopyrimidinone Series of NMDAR Positive Allosteric Modulators with an Improved in Vivo Profile” (ACS Med Chem Lett, 2017).
In brackets after ≈: the same amount, converted by molar mass.

System: not listed separately
Experiment: Kinetic solubility of the compound
Assay type: physicochemical
Details: read-out: Kinetic_solubility

| solubility kinetic [µM] | SMILES |
| --- | --- |
| 43.5 (≈ 18.6 µg/mL) | N#C[C@@H]1C[C@H]1c1c(Cl)ccc2nc(Cn3nc(C(F)(F)F)cc3Cl)cc(=O)n12 |

System: not listed separately
Experiment: Unbound Cmax in mouse at 5 mg/kg, po
Assay type: ADME, organism-based
Details: in vivo

| fCmax [µM] | SMILES |
| --- | --- |
| 0.06 | N#C[C@@H]1C[C@H]1c1c(Cl)ccc2nc(Cn3nc(C(F)(F)F)cc3Cl)cc(=O)n12 |

Biological target: Glutamate NMDA receptor; GRIN1/GRIN2B (Homo sapiens, UniProt Q05586+Q13224)
Experiment: Positive allosteric modulation of GluN1/GluN2B receptor (unknown origin) expressed in HEK293 cells assessed as increase in glutamate-induced calcium flux at 125 uM measured at time interval of 5 mins in presence of saturating glycine by calcium dye-based fluorescence assay relative to glutamate
Assay type: ADME, cell-based
Details: not given

Glutamate NMDA receptor; GRIN1/GRIN2B, sequence (Q13224 whole entry, other chains not shown): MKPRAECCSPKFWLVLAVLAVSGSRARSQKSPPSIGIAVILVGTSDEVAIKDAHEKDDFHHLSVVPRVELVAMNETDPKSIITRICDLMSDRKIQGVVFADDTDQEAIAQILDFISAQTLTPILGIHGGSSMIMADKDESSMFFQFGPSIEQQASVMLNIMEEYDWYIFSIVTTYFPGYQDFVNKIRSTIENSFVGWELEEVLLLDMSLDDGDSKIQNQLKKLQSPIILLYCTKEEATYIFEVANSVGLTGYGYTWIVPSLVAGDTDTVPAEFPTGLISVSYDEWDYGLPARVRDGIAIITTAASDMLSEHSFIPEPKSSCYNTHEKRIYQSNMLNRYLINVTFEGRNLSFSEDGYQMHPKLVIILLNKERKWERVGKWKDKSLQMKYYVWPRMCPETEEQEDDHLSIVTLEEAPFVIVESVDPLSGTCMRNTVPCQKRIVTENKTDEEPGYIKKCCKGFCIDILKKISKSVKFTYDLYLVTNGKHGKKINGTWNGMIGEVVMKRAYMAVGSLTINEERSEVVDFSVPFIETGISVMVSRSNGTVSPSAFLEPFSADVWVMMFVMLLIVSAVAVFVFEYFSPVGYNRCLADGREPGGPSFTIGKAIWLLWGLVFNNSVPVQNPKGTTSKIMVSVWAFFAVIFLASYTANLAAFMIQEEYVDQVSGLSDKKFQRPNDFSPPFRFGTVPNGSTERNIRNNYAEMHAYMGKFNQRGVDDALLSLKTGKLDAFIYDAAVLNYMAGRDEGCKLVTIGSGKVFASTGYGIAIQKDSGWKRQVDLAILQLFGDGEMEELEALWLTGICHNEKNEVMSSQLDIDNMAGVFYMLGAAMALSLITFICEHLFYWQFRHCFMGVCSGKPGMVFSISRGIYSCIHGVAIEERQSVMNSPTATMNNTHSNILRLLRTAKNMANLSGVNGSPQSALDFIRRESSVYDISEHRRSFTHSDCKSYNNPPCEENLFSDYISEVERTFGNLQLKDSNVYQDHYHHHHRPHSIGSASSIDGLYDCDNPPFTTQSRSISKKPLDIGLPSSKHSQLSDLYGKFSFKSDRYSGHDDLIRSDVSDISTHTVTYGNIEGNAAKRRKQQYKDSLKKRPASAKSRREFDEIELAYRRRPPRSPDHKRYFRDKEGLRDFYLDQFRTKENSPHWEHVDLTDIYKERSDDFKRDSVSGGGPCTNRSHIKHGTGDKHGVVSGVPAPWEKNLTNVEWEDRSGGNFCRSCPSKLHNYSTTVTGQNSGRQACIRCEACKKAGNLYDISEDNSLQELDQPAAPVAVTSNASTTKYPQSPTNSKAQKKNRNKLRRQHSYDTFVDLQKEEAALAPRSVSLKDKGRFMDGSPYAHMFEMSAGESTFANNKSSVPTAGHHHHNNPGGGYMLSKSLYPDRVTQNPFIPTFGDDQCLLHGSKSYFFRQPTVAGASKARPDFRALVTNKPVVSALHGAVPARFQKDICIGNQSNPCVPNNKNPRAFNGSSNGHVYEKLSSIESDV

| Emax at 125 µM [%] | SMILES |
| --- | --- |
| 96 | N#C[C@@H]1C[C@H]1c1c(Cl)ccc2nc(Cn3nc(C(F)(F)F)cc3Cl)cc(=O)n12 |

System: not listed separately
Experiment: Unbound AUClast in mouse at 5 mg/kg, po
Assay type: ADME, organism-based
Details: in vivo

| fAUClast [µM·h] | SMILES |
| --- | --- |
| 0.53 | N#C[C@@H]1C[C@H]1c1c(Cl)ccc2nc(Cn3nc(C(F)(F)F)cc3Cl)cc(=O)n12 |

System: not listed separately
Experiment: Ratio of fCmax in mouse at 5 mg/kg, po to EC50 for GluN2A receptor (unknown origin) expressed in CHO cells co-expressing GluN1 receptor
Details: not given

| SMILES | Ratio |
| --- | --- |
| N#C[C@@H]1C[C@H]1c1c(Cl)ccc2nc(Cn3nc(C(F)(F)F)cc3Cl)cc(=O)n12 | 1.6 |

Biological target: T1, Glutamate receptor 2 (Homo sapiens, UniProt P42262)
Experiment: Positive allosteric modulation of human GluA2 receptor flip isoform assessed as increase in glutamate-induced calcium flux at 125 uM measured at time interval of 5 mins in presence of saturating glycine by calcium dye-based fluorescence assay relative to glutamate
Assay type: single protein
Details: not given

T1 sequence (P42262 whole entry, canonical isoform): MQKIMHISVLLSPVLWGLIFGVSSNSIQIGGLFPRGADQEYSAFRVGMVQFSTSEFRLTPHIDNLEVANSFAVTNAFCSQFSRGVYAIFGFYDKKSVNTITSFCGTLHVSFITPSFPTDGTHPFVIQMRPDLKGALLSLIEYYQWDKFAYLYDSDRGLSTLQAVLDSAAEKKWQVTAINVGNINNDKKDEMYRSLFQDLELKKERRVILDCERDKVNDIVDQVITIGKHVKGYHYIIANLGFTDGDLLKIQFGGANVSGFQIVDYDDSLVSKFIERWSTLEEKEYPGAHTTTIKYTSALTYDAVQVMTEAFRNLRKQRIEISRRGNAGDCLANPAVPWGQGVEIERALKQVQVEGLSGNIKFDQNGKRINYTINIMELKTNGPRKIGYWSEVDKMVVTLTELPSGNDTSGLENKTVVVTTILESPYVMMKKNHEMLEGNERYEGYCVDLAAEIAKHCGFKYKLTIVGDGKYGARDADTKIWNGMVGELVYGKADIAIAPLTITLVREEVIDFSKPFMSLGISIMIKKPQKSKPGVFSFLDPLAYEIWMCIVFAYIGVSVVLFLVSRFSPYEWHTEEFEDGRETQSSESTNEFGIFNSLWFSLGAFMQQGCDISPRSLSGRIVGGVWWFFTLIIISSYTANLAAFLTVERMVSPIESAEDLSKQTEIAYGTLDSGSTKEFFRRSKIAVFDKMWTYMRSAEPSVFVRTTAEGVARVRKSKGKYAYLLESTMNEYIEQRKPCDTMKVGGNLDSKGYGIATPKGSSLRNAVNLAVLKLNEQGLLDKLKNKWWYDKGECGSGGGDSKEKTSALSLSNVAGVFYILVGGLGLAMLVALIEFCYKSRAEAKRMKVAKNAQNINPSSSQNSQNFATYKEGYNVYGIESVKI

| Emax at 125 µM [%] | SMILES |
| --- | --- |
| 5 | Cc1ccc2nc(Cn3nc(C(F)(F)F)cc3Cl)cc(=O)n2c1-c1cncnc1 |
| 28 | COc1ccc2nc(Cn3nc(C(F)(F)F)cc3Cl)cc(=O)n2c1[C@@H]1C[C@H]1C#N |
| 91 | Cc1sc2nc(Cn3nc(C(F)(F)F)cc3Cl)cc(=O)n2c1[C@@H]1C[C@H]1C#N |
| 61 | N#C[C@@H]1C[C@H]1c1c(Cl)ccc2nc(Cn3nc(C(F)(F)F)cc3Cl)cc(=O)n12 |

System: not listed separately
Experiment: Protein binding in mouse plasma
Assay type: ADME, cell-free
Details: read-out: PPB (converted)

| fraction unbound | SMILES |
| --- | --- |
| 0.076 | N#C[C@@H]1C[C@H]1c1c(Cl)ccc2nc(Cn3nc(C(F)(F)F)cc3Cl)cc(=O)n12 |

System: not listed separately
Experiment: Volume of distribution at steady state in mouse at 0.5 mg/kg, iv
Assay type: ADME, organism-based
Details: in vivo, read-out: Vdss

| Vd [L/kg] | SMILES |
| --- | --- |
| 7 | N#C[C@@H]1C[C@H]1c1c(Cl)ccc2nc(Cn3nc(C(F)(F)F)cc3Cl)cc(=O)n12 |

System: MDR1 (human)
Experiment: Efflux ratio of permeability from basolateral to apical over apical to basolateral side in MDCK cells expressing human MDR1
Assay type: ADME, cell-based, Canis lupus familiaris
Details: dog

| efflux ratio | SMILES |
| --- | --- |
| 3.2 | COc1ccc2nc(Cn3nc(C(F)(F)F)cc3Cl)cc(=O)n2c1[C@@H]1C[C@H]1C#N |
| 1.6 | N#C[C@@H]1C[C@H]1c1c(Cl)ccc2nc(Cn3nc(C(F)(F)F)cc3Cl)cc(=O)n12 |

System: not listed separately
Experiment: Lipophilicity, log D of the compound
Assay type: physicochemical
Details: octanol/water

| logD | SMILES |
| --- | --- |
| 1.8 | N#C[C@@H]1C[C@H]1c1c(Cl)ccc2nc(Cn3nc(C(F)(F)F)cc3Cl)cc(=O)n12 |

System: not listed separately
Experiment: Activity at AMPA receptor in mouse hippocampal brain slices assessed as electrical stimulation-induced excitatory post synaptic potential at -70 mV holding potential by electrophysiology method
Assay type: ADME
Details: not given

| EC50 [µM] | SMILES |
| --- | --- |
| > 15 | N#C[C@@H]1C[C@H]1c1c(Cl)ccc2nc(Cn3nc(C(F)(F)F)cc3Cl)cc(=O)n12 |

System: not listed separately
Experiment: Protein binding in human plasma
Assay type: ADME, cell-free
Details: read-out: PPB (converted)

| fraction unbound | SMILES |
| --- | --- |
| 0.056 | N#C[C@@H]1C[C@H]1c1c(Cl)ccc2nc(Cn3nc(C(F)(F)F)cc3Cl)cc(=O)n12 |

System: not listed separately
Experiment: Drug uptake in mouse brain
Assay type: ADME, tissue-based
Details: in vivo

| Drug uptake [%] | SMILES |
| --- | --- |
| 94.9 | N#C[C@@H]1C[C@H]1c1c(Cl)ccc2nc(Cn3nc(C(F)(F)F)cc3Cl)cc(=O)n12 |

Biological target: Ionotropic glutamate receptor NMDA 1/2D (Homo sapiens, UniProt O15399+Q05586)
Experiment: Positive allosteric modulation of GluN1/GluN2D receptor (unknown origin) assessed as increase in glutamate-induced calcium flux measured at time interval of 5 mins in presence of saturating glycine by calcium dye-based fluorescence assay
Details: not given

Ionotropic glutamate receptor NMDA 1/2D, sequence (O15399 whole entry, other chains not shown): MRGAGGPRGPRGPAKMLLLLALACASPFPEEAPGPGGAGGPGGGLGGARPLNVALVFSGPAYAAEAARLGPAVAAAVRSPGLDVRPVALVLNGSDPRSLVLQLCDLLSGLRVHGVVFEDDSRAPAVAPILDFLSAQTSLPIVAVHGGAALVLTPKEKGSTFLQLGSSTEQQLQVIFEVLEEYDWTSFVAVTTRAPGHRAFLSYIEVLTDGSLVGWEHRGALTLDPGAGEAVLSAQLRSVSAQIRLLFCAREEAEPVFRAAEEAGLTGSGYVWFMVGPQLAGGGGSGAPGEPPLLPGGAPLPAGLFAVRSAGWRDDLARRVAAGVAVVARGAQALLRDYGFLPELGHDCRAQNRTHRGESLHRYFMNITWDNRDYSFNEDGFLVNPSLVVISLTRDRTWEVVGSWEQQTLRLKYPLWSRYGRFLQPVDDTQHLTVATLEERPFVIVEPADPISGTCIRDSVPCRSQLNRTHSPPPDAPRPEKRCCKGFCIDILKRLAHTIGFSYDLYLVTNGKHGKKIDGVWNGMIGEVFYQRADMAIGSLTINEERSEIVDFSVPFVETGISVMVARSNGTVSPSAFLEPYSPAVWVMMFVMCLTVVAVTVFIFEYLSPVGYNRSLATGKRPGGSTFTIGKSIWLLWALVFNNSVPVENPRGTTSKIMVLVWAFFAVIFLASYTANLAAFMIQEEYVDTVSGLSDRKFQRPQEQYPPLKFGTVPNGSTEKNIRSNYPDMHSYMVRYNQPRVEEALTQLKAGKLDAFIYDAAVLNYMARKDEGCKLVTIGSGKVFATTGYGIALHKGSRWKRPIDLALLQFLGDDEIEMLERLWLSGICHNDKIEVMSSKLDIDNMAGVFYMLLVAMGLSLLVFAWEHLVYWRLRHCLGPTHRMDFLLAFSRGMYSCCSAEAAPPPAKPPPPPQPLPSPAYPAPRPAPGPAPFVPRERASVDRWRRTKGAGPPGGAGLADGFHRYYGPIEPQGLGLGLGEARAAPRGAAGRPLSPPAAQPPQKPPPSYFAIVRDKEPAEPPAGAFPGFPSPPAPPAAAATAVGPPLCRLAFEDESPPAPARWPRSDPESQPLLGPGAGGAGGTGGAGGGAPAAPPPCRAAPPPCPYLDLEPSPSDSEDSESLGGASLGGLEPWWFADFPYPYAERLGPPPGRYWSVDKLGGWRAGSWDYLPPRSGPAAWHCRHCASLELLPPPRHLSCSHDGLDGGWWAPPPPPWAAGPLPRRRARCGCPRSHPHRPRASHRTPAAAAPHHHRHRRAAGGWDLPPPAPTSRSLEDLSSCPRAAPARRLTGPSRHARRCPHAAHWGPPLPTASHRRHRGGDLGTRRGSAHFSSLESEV

| EC50 [µM] | SMILES |
| --- | --- |
| 9.5 | N#C[C@@H]1C[C@H]1c1c(Cl)ccc2nc(Cn3nc(C(F)(F)F)cc3Cl)cc(=O)n12 |

Biological target: T1, Glutamate receptor 2
Experiment: Positive allosteric modulation of human GluA2 receptor flop isoform assessed as increase in glutamate-induced calcium flux at 125 uM measured at time interval of 5 mins in presence of saturating glycine by calcium dye-based fluorescence assay relative to glutamate
Assay type: Functional, single protein
Details: not given

| Emax at 125 µM [%] | SMILES |
| --- | --- |
| 3 | Cc1ccc2nc(Cn3nc(C(F)(F)F)cc3Cl)cc(=O)n2c1-c1cncnc1 |
| 15 | COc1ccc2nc(Cn3nc(C(F)(F)F)cc3Cl)cc(=O)n2c1[C@@H]1C[C@H]1C#N |
| 93 | Cc1sc2nc(Cn3nc(C(F)(F)F)cc3Cl)cc(=O)n2c1[C@@H]1C[C@H]1C#N |
| 67 | N#C[C@@H]1C[C@H]1c1c(Cl)ccc2nc(Cn3nc(C(F)(F)F)cc3Cl)cc(=O)n12 |

System: not listed separately
Experiment: Clearance in mouse blood at 0.5 mg/kg, iv
Assay type: ADME, organism-based
Details: not given

| clearance [mL/min/kg] | SMILES |
| --- | --- |
| 10 | N#C[C@@H]1C[C@H]1c1c(Cl)ccc2nc(Cn3nc(C(F)(F)F)cc3Cl)cc(=O)n12 |

Biological target: T1, Glutamate receptor 2
Experiment: Positive allosteric modulation of human GluA2 receptor flop isoform assessed as increase in glutamate-induced calcium flux measured at time interval of 5 mins in presence of saturating glycine by calcium dye-based fluorescence assay
Assay type: Functional, single protein
Details: not given

| EC50 [µM] | SMILES |
| --- | --- |
| 49 | N#C[C@@H]1C[C@H]1c1c(Cl)ccc2nc(Cn3nc(C(F)(F)F)cc3Cl)cc(=O)n12 |

Biological target: T2, Glutamate NMDA receptor; GRIN1/GRIN2A (Homo sapiens, UniProt Q05586+Q12879)
Experiment: Positive allosteric modulation of GluN1/GluN2A receptor (unknown origin) expressed in CHO cells assessed as increase in glutamate-induced calcium flux measured at time interval of 5 mins in presence of saturating glycine by calcium dye-based fluorescence assay
Assay type: cell-based
Details: not given

| EC50 [µM] | SMILES |
| --- | --- |
| 9.8 | Cc1ccc2nc(Cn3nc(C(F)(F)F)cc3Cl)cc(=O)n2c1-c1cncnc1 |
| 0.08 | COc1ccc2nc(Cn3nc(C(F)(F)F)cc3Cl)cc(=O)n2c1[C@@H]1C[C@H]1C#N |

System: not listed separately
Experiment: Selectivity ratio of EC50 for human GluA2 flop isoform receptor to EC50 for GluN1/GluN2A receptor (unknown origin) expressed in CHO cells
Assay type: ADME, cell-based
Details: not given

| SMILES | Ratio EC50 |
| --- | --- |
| N#C[C@@H]1C[C@H]1c1c(Cl)ccc2nc(Cn3nc(C(F)(F)F)cc3Cl)cc(=O)n12 | > 1000 |

System: not listed separately
Experiment: Ratio of unbound concentration in brain to plasma in mouse at 5 mg/kg, po at 1 hr
Assay type: ADME, organism-based
Details: brain and plasma, read-out: K(p,uu,brain)

| Kp uu at 1 h | SMILES |
| --- | --- |
| 0.67 | N#C[C@@H]1C[C@H]1c1c(Cl)ccc2nc(Cn3nc(C(F)(F)F)cc3Cl)cc(=O)n12 |

System: not listed separately
Experiment: Half life in mouse at 0.5 mg/kg, iv
Assay type: ADME, organism-based
Details: in vivo

| half-life [h] | SMILES |
| --- | --- |
| 8 | N#C[C@@H]1C[C@H]1c1c(Cl)ccc2nc(Cn3nc(C(F)(F)F)cc3Cl)cc(=O)n12 |

System: not listed separately
Experiment: Oral bioavailability in mouse at 5 mg/kg
Assay type: ADME, organism-based
Details: in vivo

| bioavailability [%] | SMILES |
| --- | --- |
| 37 | N#C[C@@H]1C[C@H]1c1c(Cl)ccc2nc(Cn3nc(C(F)(F)F)cc3Cl)cc(=O)n12 |

Biological target: T2, Glutamate NMDA receptor; GRIN1/GRIN2A
Experiment: Positive allosteric modulation of GluN1/GluN2A receptor (unknown origin) expressed in CHO cells assessed as increase in glutamate-induced calcium flux at 125 uM measured at time interval of 5 mins in presence of saturating glycine by calcium dye-based fluorescence assay relative to glutamate
Assay type: cell-based
Details: not given

| Emax [%] | SMILES |
| --- | --- |
| 84 | Cc1ccc2nc(Cn3nc(C(F)(F)F)cc3Cl)cc(=O)n2c1-c1cncnc1 |
| 120 | COc1ccc2nc(Cn3nc(C(F)(F)F)cc3Cl)cc(=O)n2c1[C@@H]1C[C@H]1C#N |
| 151 | Cc1sc2nc(Cn3nc(C(F)(F)F)cc3Cl)cc(=O)n2c1[C@@H]1C[C@H]1C#N |

Biological target: Ionotropic glutamate receptor NMDA 1/2C (Homo sapiens, UniProt Q05586+Q14957)
Experiment: Positive allosteric modulation of GluN1/GluN2C receptor (unknown origin) assessed as increase in glutamate-induced calcium flux measured at time interval of 5 mins in presence of saturating glycine by calcium dye-based fluorescence assay
Details: not given

Ionotropic glutamate receptor NMDA 1/2C, sequence (Q14957 whole entry, other chains not shown): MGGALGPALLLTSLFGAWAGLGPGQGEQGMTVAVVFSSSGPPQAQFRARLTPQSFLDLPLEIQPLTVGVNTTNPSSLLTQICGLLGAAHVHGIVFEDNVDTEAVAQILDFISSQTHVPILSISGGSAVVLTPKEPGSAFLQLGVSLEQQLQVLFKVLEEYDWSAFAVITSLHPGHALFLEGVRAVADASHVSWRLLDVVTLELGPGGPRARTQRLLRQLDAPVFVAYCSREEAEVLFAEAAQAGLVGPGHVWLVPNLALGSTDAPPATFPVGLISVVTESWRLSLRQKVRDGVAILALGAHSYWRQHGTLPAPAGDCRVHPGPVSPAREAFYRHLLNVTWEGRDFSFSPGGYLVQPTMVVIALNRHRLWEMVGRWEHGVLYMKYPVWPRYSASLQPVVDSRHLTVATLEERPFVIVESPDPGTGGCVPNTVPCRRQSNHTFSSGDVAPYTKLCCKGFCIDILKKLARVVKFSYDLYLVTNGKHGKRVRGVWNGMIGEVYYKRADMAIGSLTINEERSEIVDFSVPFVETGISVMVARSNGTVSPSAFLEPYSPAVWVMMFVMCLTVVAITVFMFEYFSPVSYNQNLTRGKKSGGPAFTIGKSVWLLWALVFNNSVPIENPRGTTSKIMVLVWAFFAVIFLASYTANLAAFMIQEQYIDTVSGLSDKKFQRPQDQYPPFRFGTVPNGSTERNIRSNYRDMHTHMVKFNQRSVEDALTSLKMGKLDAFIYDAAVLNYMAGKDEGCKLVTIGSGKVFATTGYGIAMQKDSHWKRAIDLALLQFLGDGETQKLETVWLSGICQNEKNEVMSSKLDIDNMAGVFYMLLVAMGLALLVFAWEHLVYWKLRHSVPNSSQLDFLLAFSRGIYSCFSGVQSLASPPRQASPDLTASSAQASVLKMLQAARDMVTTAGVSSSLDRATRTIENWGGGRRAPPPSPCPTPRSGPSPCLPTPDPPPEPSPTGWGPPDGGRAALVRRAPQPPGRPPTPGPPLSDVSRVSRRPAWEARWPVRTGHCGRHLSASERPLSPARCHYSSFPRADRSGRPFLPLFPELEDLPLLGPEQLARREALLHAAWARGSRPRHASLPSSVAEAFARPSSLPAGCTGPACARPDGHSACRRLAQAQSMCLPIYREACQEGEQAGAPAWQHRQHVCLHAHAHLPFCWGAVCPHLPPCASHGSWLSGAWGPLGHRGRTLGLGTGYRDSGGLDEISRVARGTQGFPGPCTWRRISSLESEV

| EC50 [µM] | SMILES |
| --- | --- |
| 4.7 | N#C[C@@H]1C[C@H]1c1c(Cl)ccc2nc(Cn3nc(C(F)(F)F)cc3Cl)cc(=O)n12 |

System: not listed separately
Experiment: Unbound clearance in mouse blood at 0.5 mg/kg, iv
Assay type: ADME, organism-based
Details: in vivo

| CL free [mL/min/kg] | SMILES |
| --- | --- |
| 132 | N#C[C@@H]1C[C@H]1c1c(Cl)ccc2nc(Cn3nc(C(F)(F)F)cc3Cl)cc(=O)n12 |

System: not listed separately
Experiment: Selectivity ratio of EC50 for human GluA2 flip isoform receptor to EC50 for GluN1/GluN2A receptor (unknown origin) expressed in CHO cells
Assay type: ADME, cell-based
Details: not given

| SMILES | Ratio EC50 |
| --- | --- |
| N#C[C@@H]1C[C@H]1c1c(Cl)ccc2nc(Cn3nc(C(F)(F)F)cc3Cl)cc(=O)n12 | > 1000 |

System: not listed separately
Experiment: Selectivity ratio of EC50 for GluN1/GluN2B receptor (unknown origin) expressed in HEK293 cells to EC50 for GluN1/GluN2A receptor (unknown origin) expressed in CHO cells
Assay type: cell-based
Details: human

| SMILES | Ratio EC50 |
| --- | --- |
| N#C[C@@H]1C[C@H]1c1c(Cl)ccc2nc(Cn3nc(C(F)(F)F)cc3Cl)cc(=O)n12 | > 100 |

Biological target: T1, Glutamate receptor 2
Experiment: Positive allosteric modulation of human GluA2 receptor flip isoform assessed as increase in glutamate-induced calcium flux measured at time interval of 5 mins in presence of saturating glycine by calcium dye-based fluorescence assay
Assay type: Functional, single protein
Details: not given

| EC50 [µM] | SMILES |
| --- | --- |
| 45 | N#C[C@@H]1C[C@H]1c1c(Cl)ccc2nc(Cn3nc(C(F)(F)F)cc3Cl)cc(=O)n12 |
